Patent US5028716A, “3,5-diamino-1,2,4-triazole derivatives” (Taisho Pharmaceutical Co., Ltd., priority 1989, dated 1991)

What follows are molecules tested on lipid peroxidation (cerebral tissue homogenate) (assay: Inhibition test of lipid peroxidation (malondialdehyde formation, thiobarbituric acid method)). Settings: 5 μM, rat cerebral tissue supernatant, pH 7.4, 37° C., 30 minutes.
`Cc1ccc(CN(CCSSCCN(Cc2ccc(C)c([N+](=O)[O-])c2)c2nc(N)n[nH]2)c2nc(N)n[nH]2)cc1[N+](=O)[O-]` [Compound 37] was tested, and the “Inhibition (%) Dose 5 μM” value was 31.4%. In the case of `Nc1n[nH]c(N(CCSSCCN(Cc2cccc([N+](=O)[O-])c2)c2nc(N)n[nH]2)Cc2cccc([N+](=O)[O-])c2)n1` [Compound 19], the “Inhibition (%) Dose 5 μM” value is reported as 21.3%. In the case of `Nc1n[nH]c(N(CCSSCCN(Cc2cccc(C(F)(F)F)c2)c2nc(N)n[nH]2)Cc2cccc(C(F)(F)F)c2)n1` [Compound 22], the “Inhibition (%) Dose 5 μM” value is reported as 36.6%. With `Nc1nc(N(CCSSCCN(Cc2ccccc2)c2n[nH]c(N)n2)Cc2ccccc2)n[nH]1` [Compound 7, bis{2-[N-benzyl-N-(5-amino-1,2,4-triazol-3-yl)amino]ethyl}disulfide] the “Inhibition (%) Dose 5 μM” value was 31.4%. In the case of `COc1ccc(CN(CCSSCCN(Cc2ccc(OC)cc2)c2nc(N)n[nH]2)c2nc(N)n[nH]2)cc1` [Compound 17], the “Inhibition (%) Dose 5 μM” value is reported as 22.2%. `Nc1n[nH]c(N(CCSSCCN(Cc2ccc3ccccc3c2)c2nc(N)n[nH]2)Cc2ccc3ccccc3c2)n1` [Compound 39] was tested, and the “Inhibition (%) Dose 5 μM” value was 56.3%. In the case of `Nc1n[nH]c(N(CCSSCCN(Cc2cccc(Br)c2)c2nc(N)n[nH]2)Cc2cccc(Br)c2)n1` [Compound 13], the “Inhibition (%) Dose 5 μM” value is reported as 51.1%. `CC(C)(C)c1ccc(CN(CCSSCCN(Cc2ccc(C(C)(C)C)cc2)c2nc(N)n[nH]2)c2nc(N)n[nH]2)cc1` [Compound 33] was tested, and the “Inhibition (%) Dose 5 μM” value was 35.6%. In the case of vitamin E [reference compound], the “Inhibition (%) Dose 5 μM” value is reported as 12.6%. In the case of `Cc1ccc(CN(CCSSCCN(Cc2ccc(C)cc2)c2nc(N)n[nH]2)c2nc(N)n[nH]2)cc1` [Compound 25], the “Inhibition (%) Dose 5 μM” value is reported as 51.8%. With `Nc1n[nH]c(N(CCSSCCN(Cc2cccc3ccccc23)c2nc(N)n[nH]2)Cc2cccc3ccccc23)n1` [Compound 38] the “Inhibition (%) Dose 5 μM” value was 56.8%. In the case of `Cc1ccc(C)c(CN(CCSSCCN(Cc2cc(C)ccc2C)c2nc(N)n[nH]2)c2nc(N)n[nH]2)c1` [Compound 29], the “Inhibition (%) Dose 5 μM” value is reported as 70.8%. For `Cc1ccccc1CN(CCSSCCN(Cc1ccccc1C)c1nc(N)n[nH]1)c1nc(N)n[nH]1` [Compound 24], the “Inhibition (%) Dose 5 μM” value was 41.6%. For `Nc1n[nH]c(N(CCSSCCN(Cc2ccc(-c3ccccc3)cc2)c2nc(N)n[nH]2)Cc2ccc(-c3ccccc3)cc2)n1` [Compound 34], the “Inhibition (%) Dose 5 μM” value was 55.8%. For `Nc1n[nH]c(N(CCSSCCN(Cc2ccc(Br)cc2)c2nc(N)n[nH]2)Cc2ccc(Br)cc2)n1` [Compound 14], the “Inhibition (%) Dose 5 μM” value was 49.2%. For `Nc1n[nH]c(N(CCSSCCN(Cc2ccc(OCc3ccccc3)cc2)c2nc(N)n[nH]2)Cc2ccc(OCc3ccccc3)cc2)n1` [Compound 18], the “Inhibition (%) Dose 5 μM” value was 71.7%. For `Nc1n[nH]c(N(CCSSCCN(Cc2ccc([N+](=O)[O-])cc2)c2nc(N)n[nH]2)Cc2ccc([N+](=O)[O-])cc2)n1` [Compound 20], the “Inhibition (%) Dose 5 μM” value was 35.2%. `Cc1cccc(CN(CCSSCCN(Cc2cccc(C)c2)c2nc(N)n[nH]2)c2nc(N)n[nH]2)c1` [Compound 23] was tested, and the “Inhibition (%) Dose 5 μM” value was 48.1%. With `Cc1cc(C)c(CN(CCSSCCN(Cc2c(C)cc(C)cc2C)c2nc(N)n[nH]2)c2nc(N)n[nH]2)c(C)c1` [Compound 30] the “Inhibition (%) Dose 5 μM” value was 85.8%.

Same assay, conditions: 100 μM, rat cerebral tissue supernatant, pH 7.4, 37° C., 30 minutes
For `Nc1n[nH]c(N(CCSSCCN(Cc2cccc([N+](=O)[O-])c2)c2nc(N)n[nH]2)Cc2cccc([N+](=O)[O-])c2)n1` [Compound 19], the “Inhibition (%) Dose 100 μM” value was 100%. `CC(C)N(CCSSCCN(c1nc(N)n[nH]1)C(C)C)c1nc(N)n[nH]1` [Compound 6] was tested, and the “Inhibition (%) Dose 100 μM” value was 55.7%. `Nc1nc(N(CCSSCCN(Cc2ccccc2)c2n[nH]c(N)n2)Cc2ccccc2)n[nH]1` [Compound 7, bis{2-[N-benzyl-N-(5-amino-1,2,4-triazol-3-yl)amino]ethyl}disulfide] was tested, and the “Inhibition (%) Dose 100 μM” value was 96.0%. In the case of `COc1ccc(CN(CCSSCCN(Cc2ccc(OC)cc2)c2nc(N)n[nH]2)c2nc(N)n[nH]2)cc1` [Compound 17], the “Inhibition (%) Dose 100 μM” value is reported as 100%. vitamin E [reference compound] was tested, and the “Inhibition (%) Dose 100 μM” value was 30.5%.
